In ChEMBL document CHEMBL3091325, “New aminopyrimidine derivatives as inhibitors of the TAM family” (Eur J Med Chem, 2013):

How the values were obtained:
[1] = target: Fibroblast growth factor receptor 3 (Homo sapiens) (UniProt P22607); experiment: Inhibition of FGFR3 (unknown origin) at 75 uM relative to control
[2] = target: Fibroblast growth factor receptor 3 (Homo sapiens) (UniProt P22607); experiment: Inhibition of FGFR3 (unknown origin) at 1 uM relative to control
[3] = target: Fibroblast growth factor receptor 3 (Homo sapiens) (UniProt P22607); experiment: Inhibition of FGFR3 (unknown origin) at 0.5 uM relative to control
[4] = target: Tyrosine-protein kinase ABL1 (Homo sapiens) (UniProt P00519); experiment: Inhibition of phosphorylated form of Abl1 (unknown origin) at 75 uM relative to control
Tyrosine-protein kinase ABL1 (Homo sapiens), sequence (P00519 whole entry): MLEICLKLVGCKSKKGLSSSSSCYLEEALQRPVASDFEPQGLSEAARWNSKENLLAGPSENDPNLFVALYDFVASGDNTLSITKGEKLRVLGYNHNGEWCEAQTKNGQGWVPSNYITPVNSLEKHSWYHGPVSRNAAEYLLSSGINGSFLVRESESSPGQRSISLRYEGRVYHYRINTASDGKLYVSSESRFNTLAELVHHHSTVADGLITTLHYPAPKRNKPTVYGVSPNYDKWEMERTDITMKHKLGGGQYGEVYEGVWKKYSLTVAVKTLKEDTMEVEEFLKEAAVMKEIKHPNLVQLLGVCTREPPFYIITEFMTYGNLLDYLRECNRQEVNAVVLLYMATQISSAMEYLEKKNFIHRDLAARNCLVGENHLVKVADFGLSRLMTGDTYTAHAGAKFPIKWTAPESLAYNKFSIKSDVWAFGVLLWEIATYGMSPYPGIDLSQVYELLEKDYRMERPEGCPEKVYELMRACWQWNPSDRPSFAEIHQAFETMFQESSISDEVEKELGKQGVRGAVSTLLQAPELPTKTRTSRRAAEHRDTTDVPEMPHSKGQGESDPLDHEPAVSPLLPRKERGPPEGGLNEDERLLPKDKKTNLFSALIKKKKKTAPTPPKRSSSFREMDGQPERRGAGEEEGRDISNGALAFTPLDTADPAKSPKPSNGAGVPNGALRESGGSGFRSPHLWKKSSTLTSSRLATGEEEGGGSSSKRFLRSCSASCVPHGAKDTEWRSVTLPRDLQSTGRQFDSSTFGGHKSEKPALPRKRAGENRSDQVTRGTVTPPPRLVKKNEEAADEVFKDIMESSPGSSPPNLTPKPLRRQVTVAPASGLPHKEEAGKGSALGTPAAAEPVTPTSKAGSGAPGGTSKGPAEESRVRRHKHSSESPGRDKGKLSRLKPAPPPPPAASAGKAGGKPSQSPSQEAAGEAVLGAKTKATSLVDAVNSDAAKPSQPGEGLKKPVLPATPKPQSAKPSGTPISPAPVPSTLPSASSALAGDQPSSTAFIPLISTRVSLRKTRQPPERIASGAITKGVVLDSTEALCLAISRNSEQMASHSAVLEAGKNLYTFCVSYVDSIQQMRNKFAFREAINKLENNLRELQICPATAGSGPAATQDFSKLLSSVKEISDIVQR

[5] = target: Tyrosine-protein kinase ABL1 (Homo sapiens) (UniProt P00519); experiment: Inhibition of phosphorylated form of Abl1 (unknown origin) at 1 uM relative to control
[6] = target: Tyrosine-protein kinase ABL1 (Homo sapiens) (UniProt P00519); experiment: Inhibition of phosphorylated form of Abl1 (unknown origin) at 0.5 uM relative to control
[7] = target: Tyrosine-protein kinase ABL1 (Homo sapiens) (UniProt P00519); experiment: Inhibition of non-phosphorylated form of Abl1 (unknown origin) at 75 uM relative to control
[8] = target: Tyrosine-protein kinase ABL1 (Homo sapiens) (UniProt P00519); experiment: Inhibition of non-phosphorylated form of Abl1 (unknown origin) at 1 uM relative to control
[9] = target: Tyrosine-protein kinase ABL1 (Homo sapiens) (UniProt P00519); experiment: Inhibition of non-phosphorylated form of Abl1 (unknown origin) at 0.5 uM relative to control
[10] = target: Hepatocyte growth factor receptor (Homo sapiens) (UniProt P08581); experiment: Inhibition of Met (unknown origin) at 75 uM relative to control
Hepatocyte growth factor receptor (Homo sapiens), sequence (P08581 whole entry): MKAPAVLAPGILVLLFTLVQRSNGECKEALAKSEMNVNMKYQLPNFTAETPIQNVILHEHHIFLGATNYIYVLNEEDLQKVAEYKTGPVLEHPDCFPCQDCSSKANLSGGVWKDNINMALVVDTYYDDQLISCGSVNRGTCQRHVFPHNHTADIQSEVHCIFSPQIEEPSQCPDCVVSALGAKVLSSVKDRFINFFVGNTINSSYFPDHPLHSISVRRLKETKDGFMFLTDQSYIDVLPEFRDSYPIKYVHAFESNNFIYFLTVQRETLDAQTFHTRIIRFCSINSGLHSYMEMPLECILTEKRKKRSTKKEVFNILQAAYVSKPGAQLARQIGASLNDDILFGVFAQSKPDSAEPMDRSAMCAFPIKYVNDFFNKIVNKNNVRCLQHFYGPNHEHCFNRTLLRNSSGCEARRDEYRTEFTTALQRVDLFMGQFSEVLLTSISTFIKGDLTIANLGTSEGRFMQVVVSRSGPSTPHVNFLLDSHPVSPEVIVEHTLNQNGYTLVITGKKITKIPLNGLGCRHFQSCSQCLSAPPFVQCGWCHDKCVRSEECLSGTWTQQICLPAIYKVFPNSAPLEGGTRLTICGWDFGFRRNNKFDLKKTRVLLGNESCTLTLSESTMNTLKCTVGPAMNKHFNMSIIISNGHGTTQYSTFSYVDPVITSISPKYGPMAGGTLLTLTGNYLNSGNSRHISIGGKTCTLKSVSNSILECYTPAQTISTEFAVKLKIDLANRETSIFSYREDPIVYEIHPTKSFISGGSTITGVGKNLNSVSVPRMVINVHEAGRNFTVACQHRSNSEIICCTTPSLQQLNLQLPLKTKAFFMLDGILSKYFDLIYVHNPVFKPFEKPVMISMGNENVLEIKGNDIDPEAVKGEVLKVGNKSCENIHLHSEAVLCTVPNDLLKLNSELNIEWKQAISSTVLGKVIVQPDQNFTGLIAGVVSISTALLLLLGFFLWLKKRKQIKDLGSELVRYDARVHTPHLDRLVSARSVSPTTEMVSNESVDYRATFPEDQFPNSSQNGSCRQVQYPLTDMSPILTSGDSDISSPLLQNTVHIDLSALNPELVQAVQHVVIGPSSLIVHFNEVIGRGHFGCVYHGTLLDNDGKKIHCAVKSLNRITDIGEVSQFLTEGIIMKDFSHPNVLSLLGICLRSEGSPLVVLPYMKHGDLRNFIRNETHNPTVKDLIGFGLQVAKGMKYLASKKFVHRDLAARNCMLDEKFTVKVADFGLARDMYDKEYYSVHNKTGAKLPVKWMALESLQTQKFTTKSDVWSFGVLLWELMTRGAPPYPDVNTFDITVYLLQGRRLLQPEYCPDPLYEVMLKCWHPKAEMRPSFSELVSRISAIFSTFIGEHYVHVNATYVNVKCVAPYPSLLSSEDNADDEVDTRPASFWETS

[11] = target: Hepatocyte growth factor receptor (Homo sapiens) (UniProt P08581); experiment: Inhibition of Met (unknown origin) at 1 uM relative to control
[12] = target: Hepatocyte growth factor receptor (Homo sapiens) (UniProt P08581); experiment: Inhibition of Met (unknown origin) at 0.5 uM relative to control
[13] = target: T1, Tyrosine-protein kinase Mer (Homo sapiens) (UniProt Q12866); experiment: Inhibition of Mer (unknown origin) at 75 uM relative to control
T1 sequence (whole entry): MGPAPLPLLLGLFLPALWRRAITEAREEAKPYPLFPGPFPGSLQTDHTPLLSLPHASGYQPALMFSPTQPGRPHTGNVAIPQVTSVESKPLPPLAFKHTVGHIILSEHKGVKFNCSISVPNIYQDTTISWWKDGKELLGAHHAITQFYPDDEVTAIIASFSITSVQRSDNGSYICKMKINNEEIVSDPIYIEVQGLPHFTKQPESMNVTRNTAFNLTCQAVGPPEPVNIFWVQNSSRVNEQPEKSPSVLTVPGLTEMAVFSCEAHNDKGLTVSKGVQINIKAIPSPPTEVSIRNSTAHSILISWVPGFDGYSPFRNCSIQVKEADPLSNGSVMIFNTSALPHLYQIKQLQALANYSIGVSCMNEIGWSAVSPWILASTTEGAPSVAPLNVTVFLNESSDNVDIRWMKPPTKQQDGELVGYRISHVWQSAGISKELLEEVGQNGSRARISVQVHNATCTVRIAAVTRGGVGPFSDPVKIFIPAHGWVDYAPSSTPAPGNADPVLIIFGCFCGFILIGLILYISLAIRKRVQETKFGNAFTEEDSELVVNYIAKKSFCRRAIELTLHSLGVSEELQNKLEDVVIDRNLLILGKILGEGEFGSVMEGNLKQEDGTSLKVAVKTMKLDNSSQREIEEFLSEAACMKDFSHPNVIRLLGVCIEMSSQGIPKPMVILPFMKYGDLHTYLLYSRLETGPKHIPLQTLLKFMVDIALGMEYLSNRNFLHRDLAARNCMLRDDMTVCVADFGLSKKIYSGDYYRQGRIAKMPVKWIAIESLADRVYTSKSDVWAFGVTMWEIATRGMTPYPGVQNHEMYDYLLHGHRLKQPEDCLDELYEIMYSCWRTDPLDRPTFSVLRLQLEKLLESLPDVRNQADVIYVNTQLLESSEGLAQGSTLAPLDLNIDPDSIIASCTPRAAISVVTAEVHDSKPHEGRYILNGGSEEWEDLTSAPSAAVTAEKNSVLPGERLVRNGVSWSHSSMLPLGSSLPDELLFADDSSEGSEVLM

[14] = target: T1, Tyrosine-protein kinase Mer (Homo sapiens); experiment: Inhibition of Mer (unknown origin) at 1 uM relative to control
[15] = target: T1, Tyrosine-protein kinase Mer (Homo sapiens); experiment: Inhibition of Mer (unknown origin) at 0.5 uM relative to control
[16] = target: Tyrosine-protein kinase receptor UFO (Homo sapiens) (UniProt P30530); experiment: Inhibition of Axl (unknown origin) at 75 uM relative to control
Tyrosine-protein kinase receptor UFO (Homo sapiens), sequence (P30530 whole entry, the tested form may be a part): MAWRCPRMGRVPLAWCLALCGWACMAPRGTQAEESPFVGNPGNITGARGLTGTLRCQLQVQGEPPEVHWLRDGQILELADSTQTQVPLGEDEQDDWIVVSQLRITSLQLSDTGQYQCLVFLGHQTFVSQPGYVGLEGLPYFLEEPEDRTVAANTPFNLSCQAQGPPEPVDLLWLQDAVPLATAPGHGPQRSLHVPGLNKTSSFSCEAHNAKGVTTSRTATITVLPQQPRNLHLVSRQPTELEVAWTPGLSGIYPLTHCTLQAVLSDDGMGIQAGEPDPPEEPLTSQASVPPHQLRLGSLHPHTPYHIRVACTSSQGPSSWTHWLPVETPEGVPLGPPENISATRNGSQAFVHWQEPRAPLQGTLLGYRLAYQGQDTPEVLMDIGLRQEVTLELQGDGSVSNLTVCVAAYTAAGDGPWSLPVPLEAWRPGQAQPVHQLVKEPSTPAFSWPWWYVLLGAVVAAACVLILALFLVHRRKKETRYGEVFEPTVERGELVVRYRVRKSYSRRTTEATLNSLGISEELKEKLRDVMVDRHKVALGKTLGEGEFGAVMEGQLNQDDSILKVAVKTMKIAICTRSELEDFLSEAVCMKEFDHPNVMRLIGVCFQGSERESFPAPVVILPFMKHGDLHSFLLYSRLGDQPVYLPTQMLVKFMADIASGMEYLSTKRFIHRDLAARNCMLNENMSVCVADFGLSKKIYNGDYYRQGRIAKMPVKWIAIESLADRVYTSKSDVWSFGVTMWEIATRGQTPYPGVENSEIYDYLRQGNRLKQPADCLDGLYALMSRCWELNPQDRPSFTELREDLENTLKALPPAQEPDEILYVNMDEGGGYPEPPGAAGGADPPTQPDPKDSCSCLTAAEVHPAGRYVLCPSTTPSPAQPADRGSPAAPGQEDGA

[17] = target: Tyrosine-protein kinase receptor UFO (Homo sapiens) (UniProt P30530); experiment: Inhibition of Axl (unknown origin) at 1 uM relative to control
[18] = target: Tyrosine-protein kinase receptor UFO (Homo sapiens) (UniProt P30530); experiment: Inhibition of Axl (unknown origin) at 0.5 uM relative to control
[19] = target: T2, Tyrosine-protein kinase receptor TYRO3 (Homo sapiens) (UniProt Q06418); experiment: Inhibition of recombinant human Tyro3 kinase domain using poly (Glu, Ala, Tyr) as substrate at 75 uM after 1.5 hrs by ELISA relative to control
T2 sequence (whole entry): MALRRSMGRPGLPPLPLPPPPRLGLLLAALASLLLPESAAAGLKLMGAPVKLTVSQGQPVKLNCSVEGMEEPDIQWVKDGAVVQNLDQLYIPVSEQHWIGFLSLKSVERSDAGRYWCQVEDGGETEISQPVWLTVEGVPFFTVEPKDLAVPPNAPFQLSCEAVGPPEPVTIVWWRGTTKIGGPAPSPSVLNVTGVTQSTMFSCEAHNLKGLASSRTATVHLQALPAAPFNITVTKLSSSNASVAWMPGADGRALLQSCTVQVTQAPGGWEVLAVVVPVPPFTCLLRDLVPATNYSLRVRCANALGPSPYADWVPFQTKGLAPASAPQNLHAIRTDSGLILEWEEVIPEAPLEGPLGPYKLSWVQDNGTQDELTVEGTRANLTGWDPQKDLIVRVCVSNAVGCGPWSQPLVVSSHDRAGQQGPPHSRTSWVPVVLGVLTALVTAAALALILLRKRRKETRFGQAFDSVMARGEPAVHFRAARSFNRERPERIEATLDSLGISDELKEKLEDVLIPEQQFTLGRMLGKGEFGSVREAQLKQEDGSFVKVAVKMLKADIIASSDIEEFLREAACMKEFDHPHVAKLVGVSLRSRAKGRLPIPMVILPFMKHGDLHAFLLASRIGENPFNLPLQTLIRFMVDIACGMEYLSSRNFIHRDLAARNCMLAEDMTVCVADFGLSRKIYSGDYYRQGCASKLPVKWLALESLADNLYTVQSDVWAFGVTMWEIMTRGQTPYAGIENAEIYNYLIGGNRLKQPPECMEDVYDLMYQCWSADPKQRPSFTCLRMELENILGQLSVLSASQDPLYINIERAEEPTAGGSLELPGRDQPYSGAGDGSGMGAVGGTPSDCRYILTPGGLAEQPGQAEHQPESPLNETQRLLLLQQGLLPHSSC

[20] = target: T2, Tyrosine-protein kinase receptor TYRO3 (Homo sapiens); experiment: Inhibition of recombinant human Tyro3 kinase domain using poly (Glu, Ala, Tyr) as substrate at 1 uM after 1.5 hrs by ELISA relative to control
[21] = target: T2, Tyrosine-protein kinase receptor TYRO3 (Homo sapiens); experiment: Inhibition of recombinant human Tyro3 kinase domain using poly (Glu, Ala, Tyr) as substrate at 0.5 uM after 1.5 hrs by ELISA relative to control

Fibroblast growth factor receptor 3 (Homo sapiens), sequence (P22607 23-806 limits assumed): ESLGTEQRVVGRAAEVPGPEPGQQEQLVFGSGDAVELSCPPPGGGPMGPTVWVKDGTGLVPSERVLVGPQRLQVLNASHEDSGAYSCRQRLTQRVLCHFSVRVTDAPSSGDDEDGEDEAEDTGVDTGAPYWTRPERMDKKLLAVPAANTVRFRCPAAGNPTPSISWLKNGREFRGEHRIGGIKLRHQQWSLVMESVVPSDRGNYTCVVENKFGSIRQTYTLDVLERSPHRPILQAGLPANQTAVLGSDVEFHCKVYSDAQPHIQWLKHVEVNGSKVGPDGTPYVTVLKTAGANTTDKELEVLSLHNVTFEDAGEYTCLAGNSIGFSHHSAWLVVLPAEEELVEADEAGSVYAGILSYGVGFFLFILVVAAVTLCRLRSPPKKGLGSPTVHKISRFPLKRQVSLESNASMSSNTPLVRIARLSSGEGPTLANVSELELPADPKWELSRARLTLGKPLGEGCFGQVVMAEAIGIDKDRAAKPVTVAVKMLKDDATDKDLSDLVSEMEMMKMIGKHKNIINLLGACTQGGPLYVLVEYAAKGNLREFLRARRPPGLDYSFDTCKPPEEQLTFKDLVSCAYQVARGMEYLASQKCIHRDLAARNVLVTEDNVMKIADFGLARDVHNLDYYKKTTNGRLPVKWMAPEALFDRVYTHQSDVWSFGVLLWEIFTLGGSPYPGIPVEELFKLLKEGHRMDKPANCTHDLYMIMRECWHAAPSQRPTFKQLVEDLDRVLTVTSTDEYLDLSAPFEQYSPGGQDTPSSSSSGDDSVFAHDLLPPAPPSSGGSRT

| inhibition [1] [%] | inhibition [2] [%] | inhibition [3] [%] | inhibition [4] [%] | inhibition [5] [%] | inhibition [6] [%] | inhibition [7] [%] | inhibition [8] [%] | inhibition [9] [%] | inhibition [10] [%] | inhibition [11] [%] | inhibition [12] [%] | inhibition [13] [%] | inhibition [14] [%] | inhibition [15] [%] | inhibition [16] [%] | inhibition [17] [%] | inhibition [18] [%] | inhibition [19] [%] | inhibition [20] [%] | other results | SMILES |
| --- | --- | --- | --- | --- | --- | --- | --- | --- | --- | --- | --- | --- | --- | --- | --- | --- | --- | --- | --- | --- | --- |
| 9 | 0 | 0 | 21 | 4 | 8 | 85 | 37 | 25 | 99 | 97 | 91 | 87 | 71 | 50 | 100 | 93 | 74 | 100 | 63 | inhibition [21]: 27% | Nc1cc(Oc2ccc(NC(=O)c3cccn(-c4ccc(F)cc4F)c3=O)cc2F)ncn1 |
| 3 | 0 | 0 | 26 | 0 | 0 | 94 | 31 | 14 | 97 | 98 | 95 | 100 | 82 | 73 | 100 | 95 | 85 | 81 | 75 | inhibition [21]: 41% | Nc1cc(Oc2ccc(NC(=O)c3cccn(-c4ccc(F)cc4)c3=O)cc2)ncn1 |
